From the METLIN SMRT retention time set (Domingo-Almenara et al. 2019)

Test: gradient 5% acetonitrile 3 min, to 50% in 2 min, to 85% in 15 min, held 3 min, 100 µL/min
Settings: column: Zorbax Extend-C18 2.1 x 50 mm; eluents: water / acetonitrile, 0.1% formic acid
Outline: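 Each retention time is based on an adduct peak selected computationally and verified by manual inspection. Measurements used HPLC–quadrupole time-of-flight mass spectrometry in positive and negative ionization mode on mixtures of ~100 pure standards. Chromatography ran on a Zorbax Extend-C18 column (2.1 × 50 mm, 1.8 μm) at 100 μL/min with water and acetonitrile, each containing 0.1% formic acid, and dead and dwell volumes of 40 μL and 900 μL.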

Row | SMILES | RP-LC retention time [s]
1 | O=C(CN1CC=C(c2cnn(-c3ccccc3)c2)CC1)N1CCCc2ccccc21 | 726
2 | Cc1ccc(-c2ccc3nn(Cc4nc(-c5cccc(Br)c5)no4)c(=O)n3n2)cc1 | 1070
3 | COc1cc(NC(=O)N2CCOc3ccc(Cl)cc32)cc(OC)c1OC | 899
4 | Cn1cnc2ccc(-c3noc(CCc4c[nH]c5ccccc45)n3)cc21 | 731
5 | CN(C)S(=O)(=O)c1ccc2nc(NC(=O)c3nc4ccccc4s3)sc2c1 | 948
6 | CC(C)c1cc(=O)n(CC(=O)Nc2nc3c(s2)CCCC3)cn1 | 692
7 | COc1ccc(-c2nc(N(C)Cc3ccco3)c3ccccc3n2)cc1 | 765
8 | O=C(O)c1ccc(Nc2ncc3c(n2)-c2ccc(Cl)cc2C(c2c(F)cccc2F)=NC3)cc1 | 947
9 | Cc1ccc(-c2ncc(NC(=O)C3CCC3)cn2)cc1 | 941
10 | O=C1CC(c2nc(-c3cccc(Cl)c3)no2)CN1c1ccc(F)cc1 (stereo not drawn) | 1030
11 | O=c1c2cc(-c3cccs3)nn2cnn1Cc1nc(-c2ccc(OC(F)(F)F)cc2)no1 | 1180
12 | CCOc1ccc(-c2nc(C3CC(=O)N(c4ccc(OC)cc4)C3)no2)cc1 (stereo not drawn) | 1010
13 | CCn1nccc1C(=O)N1CCN(c2cc(-c3ccccc3)[nH]n2)CC1 | 694
14 | CCOC(=O)c1ccc(NC(=O)C2=C(C)C(=O)OC23CCN(C(C)C)CC3)cc1 | 657
15 | CC(C)c1ccc(NC(=O)c2cn3c(n2)CCCC3)cc1 | 684
16 | O=C(Cn1cccc(-c2nc(-c3ccc(F)cc3)no2)c1=O)NC1CCCCC1 | 834
17 | CCc1nc2cc(N3CCC(C(=O)NCc4ccc(OC)cc4)CC3)cnc2nc1CC | 833
18 | CCOc1ccccc1C(=O)NC1(c2nc(-c3cccnc3)no2)CCCCC1 | 1050
19 | CCOC(=O)C1=C(C)NC2=C(C(=O)C(C(=O)OC)C(C)C2)C1c1cccc(Cl)c1 (stereo not drawn) | 965
20 | COc1ccc(/C=C/c2nc(-c3ccc4oc(C)nc4c3)no2)cc1 | 1150
21 | CCOc1ccc(N2CCCCn3c2nc2c3c(=O)n(CC(C)C)c(=O)n2C)cc1 | 1110
22 | CCOc1ccc(CC(=O)NCC(=O)Nc2nc3ccccc3[nH]2)cc1OCC | 652

Row | SMILES | RP-LC retention time [s]
23 | CCC(C)NC(=O)C1CCCN(c2ncccc2-c2noc(C3CCC3)n2)C1 (stereo not drawn) | 930
24 | O=C(O)c1ccc(Nc2nc(-c3ccc(Br)cc3)cs2)cc1 | 989
25 | N#Cc1cccc(N2C=C(C(=O)N3CCCC3)S(=O)(=O)c3ccc(F)cc32)c1 | 752
26 | CC1=C(c2ccc(C)c(C)c2)S(=O)(=O)N=C1N1CCCN(C(=O)c2ccoc2)CC1 | 764
27 | Cn1nc(C(=O)N2C[C@@H]3C[C@H](NC(=O)c4ccccc4)[C@H]2C3)c2ccccc21 | 788
28 | CCc1cccc(NC(=O)N2C[C@@H](F)C[C@H]2C(=O)N2CCOCC2)c1 | 664
29 | O=C1COc2ccccc2N1Cc1nc(-c2ccc3c(c2)nnn3C2CCCC2)no1 | 1030
30 | COc1ccc(-c2noc(C3CC(=O)N(c4ccc5c(c4)OCCO5)C3)n2)cc1 (stereo not drawn) | 897
31 | COc1cc(OC)cc(C(=O)Nc2nc3c(s2)Cc2c(Br)ccc(OC)c2-3)c1 | 1210
32 | O=C(Cc1cccs1)N1CCCN(c2cc(-c3ccc4c(c3)OCO4)[nH]n2)CC1 | 671
33 | O=C(c1ccc(CS(=O)c2ccccc2Cl)o1)N1CCN(c2ccccn2)CC1 (stereo not drawn) | 604
34 | CCc1nnc2ccc(-c3noc(-c4ccc(C)c(C)c4)n3)cn12 | 1140
35 | COc1ccc(C(=O)N2CC(N3CC(C(=O)N4CCCC4)CC3=O)C2)cc1F (stereo not drawn) | 639
36 | Cc1ccc(C)c(S(=O)(=O)N2CCC(n3cnnc3C(C)C)CC2)c1 | 768
37 | Cc1cc(C)cc(S(=O)(=O)N2CCC(n3cnc4ccc(C)cc4c3=O)CC2)c1 | 1010
38 | Clc1ccc(CSc2cc(Cl)ncn2)cc1 | 1170
39 | CCN1c2ccc(Cl)cc2C(=O)NC12CCN(C(=O)Nc1ccccc1OC)CC2 | 895
40 | CN1C(=O)CS(=O)C12CCN(C(=O)Nc1ccccc1)CC2 (stereo not drawn) | 599
41 | O=C(N1CCCC1c1noc(COCc2ccccc2)n1)C1(c2ccccc2)CC1 (stereo not drawn) | 1040
42 | O=c1n(CC2CC2)nc2n1CCN(S(=O)(=O)Cc1ccccc1)CC2 | 741
43 | CCN(CC)C(=O)Cn1nc2cc(C)nc(-c3ccc(C(F)(F)F)cc3)n2c1=O | 841
44 | Clc1ccc(Nc2c(-c3ccccc3Cl)nc3ccc(Cl)cn23)cc1 | 946

Row | SMILES | RP-LC retention time [s]
45 | O=C(CCCn1c(=O)c2cccn2c2ccc(F)cc21)NCCCN1CCOCC1 | 603
46 | O=C1CC(C(=O)N2CCN(Cc3ccc4c(c3)OCO4)CC2)CN1CCc1c[nH]c2ccc(F)cc12 (stereo not drawn) | 649
47 | CC1Cc2cc(S(=O)(=O)CCC(=O)N3CCN(Cc4ccccc4)CC3)ccc2N1C(=O)C1CC1 (stereo not drawn) | 666
48 | O=C(c1nnn(-c2ccccc2Cl)c1-c1ccncc1)N1CCN(c2ccccn2)CC1 | 973
49 | Cc1csc(-c2cc(S(=O)(=O)Nc3ccc(Cl)cc3)cn2CC(=O)N2CCCC2)n1 | 947
50 | COC(=O)N1CCc2ccc(F)cc2C1C(=O)NCc1cccnc1 (stereo not drawn) | 554
51 | O=C(O)c1cccc(Nc2c(-c3ccc(Cl)cc3)nc3cnccn23)c1 | 757
52 | CCc1ccc(-c2cn3ccn(-c4cccc(F)c4)c(=O)c3n2)cc1 | 895
53 | Cc1ccc(C)c(NC(=O)Cn2c(N3CCCCC3)nc(C)cc2=O)c1 | 688
54 | Fc1ccc(-c2n[nH]c(C3CCN(Cc4ccoc4)CC3)n2)cc1 | 595
55 | O=C(Nc1ccc(Cl)cc1)C1CC(=O)N(c2n[nH]c3cccc(F)c23)C1 (stereo not drawn) | 787
56 | CC(C)CN1C(=O)c2cccn2CC1C(=O)NCCCN1CCCC1=O (stereo not drawn) | 617
57 | C=CCOc1ccc(S(C)(=O)=O)cc1 | 814
58 | COc1cc(NC(=O)c2[nH]c3cc(C)sc3c2CN2CCOCC2)cc(OC)c1 | 718
59 | Cc1cc(N2CCOCC2)n2nc(CN3CCN(c4cc(Cl)ccc4C)CC3)nc2n1 | 668
60 | O=C(C1=CN(c2ccccc2F)c2cc(Cl)ccc2S1(=O)=O)N1CCCC1 | 842
61 | CCC1Oc2ccc(S(=O)(=O)N3CCC(C(=O)Nc4cccc(C)c4C)CC3)cc2NC1=O (stereo not drawn) | 837
62 | CCCNc1nc(-c2ccc(C3CCCCC3)cc2)cs1 | 1170
63 | COc1ccc(OCc2noc(CNC(=O)Nc3ccccc3F)n2)cc1 | 804
64 | CSc1ccccc1C(=O)N(CCN(C)C)c1nc2ccc([N+](=O)[O-])cc2s1 | 615
65 | COCCC(=O)N1CCc2c(c(-c3nc(C4CC4)no3)nn2C)C1 | 670
66 | COC(=O)c1sccc1NC(=O)Cn1c(C)cc(C)c(-c2nc(-c3ccccc3)no2)c1=O | 1060

Row | SMILES | RP-LC retention time [s]
67 | COc1ccc(-c2nc3cnccn3c2Nc2cccc(C)c2C)cc1 | 953
68 | Cc1ccsc1C(=O)Nc1cnc(-c2cccc(Cl)c2)nc1 | 1130
69 | CC(C)CCNC(=O)NCCC1CCN(S(=O)(=O)c2ccc(F)cc2)CC1 | 880
70 | N#Cc1ccc(C(=O)N2CCCCC2c2nncn2CC2CC2)cc1 (stereo not drawn) | 677
71 | CS(=O)(=O)N1CCC2(CC1)CN(c1cccc(F)c1)C2c1ccccc1 (stereo not drawn) | 1150
72 | O=C(NC1CCCCCC1)c1nnn(Cc2ccccc2)c1-n1cccc1 | 1120
73 | COC(=O)c1cc(OC)c(OC)cc1NC(=O)c1c(C)coc1C | 940
74 | CCC1Oc2ccc(S(=O)(=O)N3CCC(C(=O)NC4CCC(C)CC4)CC3)cc2NC1=O (stereo not drawn) | 904
75 | Cc1[nH]c2ccccc2c1C(=O)C(=O)N(C)c1ccccc1 | 767
76 | CCOC(=O)c1ccc(NS(=O)(=O)c2cc3n(c2)CCCN(CC)C3=O)cc1 | 759
77 | COc1ccc(S(=O)(=O)N2CCCC(C(=O)NCC3CCCO3)C2)cc1C (stereo not drawn) | 778
78 | O=C(c1ccc(F)c(F)c1)N1CCN(c2cc(-c3cccs3)[nH]n2)CC1 | 758
79 | Cc1cccc(OCCc2noc(C3CNC3)n2)c1 | 644
80 | Cc1ccc(C(=O)CC2(O)C(=O)Nc3ccccc32)c(C)c1 (stereo not drawn) | 759
81 | COCC(=O)N1CCCN(C2=NS(=O)(=O)C(c3ccc(F)cc3)=C2C)CC1 | 677
82 | Cc1ccc(-c2nc3ccccn3c2CCC(=O)Nc2ccc(Br)cc2C)cc1 | 770
83 | Cc1nn(C)c2nc(OC(C)C(=O)NCc3cccs3)cc(-c3ccccc3)c12 (stereo not drawn) | 1040
84 | O=c1n(Cc2ccc(F)cc2)nc2c(S(=O)(=O)N3CCCC3)cccn12 | 806
85 | COc1ccccc1NC(=O)c1cc2c(=O)oc3ccccc3c2n1C | 981
86 | Cn1cc(S(=O)(=O)N2CCC(C(=O)NC3CCCC3)CC2)cc1C(=O)N1CCCCC1 | 732
87 | O=C(Cn1cnc2nc(N3CCCC(C(=O)NC4CC4)C3)sc2c1=O)NC1CCCC1 (stereo not drawn) | 628
88 | CCOc1ccc(OCC)c(NS(=O)(=O)c2cc(-c3c(C)noc3NC(C)=O)ccc2OC)c1 | 864
